Reference: PMC4269550, “Lead Optimization of a Pyrazole Sulfonamide Series of Trypanosoma bruceiN-Myristoyltransferase Inhibitors: Identification and Evaluation of CNS Penetrant Compounds as Potential Treatments for Stage 2 Human African Trypanosomiasis” (Journal of Medicinal Chemistry, 2014)

Assays:
[1] = test system: T. b. rhodesiense STIB900; assay: Stage 1 HAT mouse efficacy model, T. b. rhodesiense STIB900; assay type: in vivo; settings: b.i.d. po for 4 days
[2] = test system: T. b. brucei S427; assay: Stage 1 HAT mouse efficacy model, T. b. brucei S427; assay type: in vivo; settings: b.i.d. po, mouse
[3] = Mouse pharmacokinetics; assay type: in vivo; settings: female, NMRI, whole blood; mouse, 10 mg/kg po; read-out: AUC0–8 (converted)
Procedure: Test compound was dosed as a bolus solution intravenously at 3 mg free base/kg (dose volume, 5 mL/kg; dose vehicle, saline or 5% DMSO; 40% PEG400; 55% saline) to female NMRI mice (n = 3) or dosed orally by gavage as a solution at 10 and/or 50 mg free base/kg (dose volume, 5 mL/kg; dose vehicle, 5% DMSO; 95% distilled water or 5% DMSO; 40% PEG400; 55% distilled water) to female NMRI mice (n = 3/dose level). Female NMRI mice were chosen as these represent the sex and strain used for the stage 1 and stage 2 HAT efficacy models. Blood samples were taken from each mouse at 2 (IV only), 5 (IV only), 15, and 30 min, 1, 2, 4, 6, 8, and 24 (po only) hours postdose and mixed with two volumes of distilled water. After suitable sample preparation, the concentration of test compound in blood was determined by UPLC-MS/MS using a Quattro Premier XE (Waters, USA). Pharmacokinetic parameters were derived from the mean blood concentration time curve using PKsolutions software v 2.0 (Summit Research Services, USA).

[4] = test system: P-glycoprotein; assay: Rat brain penetration study +/- GF120918; settings: in vivo
[5] = Intrinsic clearance (Cli), mouse liver microsomes; assay type: in vitro ADME

Structure (SMILES): Cc1nn(C)c(C)c1NS(=O)(=O)c1c(Cl)cc(-c2ccnc(N3CCNCC3)c2)cc1Cl [compound 1, 2,6-Dichloro-4-(2-piperazin-1-yl-pyridin-4-yl)-N-(1,3,5-trimethyl-1H-pyrazol-4-yl)-benzenesulfonamide]
- stage 1 HAT minimal curative dose, T. b. rhodesiense STIB900 [1]: 50 mg/kg
- stage 1 HAT minimal curative dose, T. b. brucei S427 [2]: 12.5 mg/kg
- AUC(0-t) [3]: 6530 ng·h/mL
- P-glycoprotein substrate [4]: substrate for P-glycoprotein
- Cli (mouse) ([5]; Table S1, unit not given): 0.6
- Cli (mouse) ([5]; mouse liver microsomes): < 1.0 mL min^–1 g^–1
